Legend:
[1] = tested on: Rat; test: concentration in kidney after dosing; settings: 1 h; dosed: Fluorotelomer alcohol 8+2; 80 mg/kg; oral; Female; Harlan Sprague Dawley
[2] = tested on: Rat; test: concentration in liver after dosing; settings: 12 h; dosed: Fluorotelomer alcohol 8+2; 80 mg/kg; oral; Female; Harlan Sprague Dawley
[3] = tested on: Rat; test: concentration in liver after dosing; settings: 6 h; dosed: Fluorotelomer alcohol 8+2; 80 mg/kg; oral; Female; Harlan Sprague Dawley
[4] = tested on: Rat; test: concentration in kidney after dosing; settings: 6 h; dosed: Fluorotelomer alcohol 8+2; 80 mg/kg; oral; Female; Harlan Sprague Dawley
[5] = tested on: Rat; test: concentration in brain after dosing; settings: 12 h; dosed: Fluorotelomer alcohol 8+2; 80 mg/kg; oral; Female; Harlan Sprague Dawley
[6] = tested on: Rat; test: concentration in plasma after dosing; settings: dosed: Fluorotelomer alcohol 8+2, 12 mg/kg, oral, Male, Harlan Sprague Dawley
[7] = tested on: Rat; test: concentration in plasma after dosing; settings: 1.5 h; dosed: Primidone; 80 mg/kg; oral; Female; F344
[8] = tested on: Rat; test: concentration in plasma after dosing; settings: 3 h; dosed: Primidone; 30 mg/kg; oral; Male; F344
[9] = tested on: Rat; test: concentration in liver after dosing; settings: 864 h; dosed: Perfluorodecanoic acid; 10 mg/kg; oral; Female; Harlan Sprague Dawley
[10] = tested on: Rat; test: concentration in liver after dosing; settings: 3360 h; dosed: Perfluorodecanoic acid; 10 mg/kg; oral; Male; Harlan Sprague Dawley
[11] = tested on: Rat; test: concentration in plasma after dosing; settings: dosed: Perfluorodecanoic acid, 2 mg/kg, iv, Male, F344
[12] = tested on: Rat; test: concentration in plasma after dosing; settings: dosed: Perfluorodecanoic acid, 2 mg/kg, iv, Male, F344; remark: listed apart in the source
[13] = tested on: Rat; test: concentration in plasma after dosing; settings: dosed: Perfluorodecanoic acid, 2 mg/kg, iv, Male, F344; remark: listed apart in the source
[14] = tested on: Rat; test: concentration in thymus after dosing; settings: 10 min; dosed: Bis 2-Chloroethoxy Methane; 20 mg/kg; iv; Male; F344
[15] = tested on: Rat; test: concentration in liver after dosing; settings: 20 min; dosed: Bis 2-Chloroethoxy Methane; 20 mg/kg; iv; Male; F344
[16] = tested on: Rat; test: concentration in heart after dosing; settings: 4 h; dosed: Bis 2-Chloroethoxy Methane; 20 mg/kg; iv; Female; F344
[17] = tested on: Rat; test: concentration in thymus after dosing; settings: 20 min; dosed: Bis 2-Chloroethoxy Methane; 20 mg/kg; iv; Male; F344
[18] = tested on: Rat; test: concentration in liver after dosing; settings: 2 h; dosed: Bis 2-Chloroethoxy Methane; 20 mg/kg; iv; Male; F344
[19] = tested on: Rat; test: concentration in thymus after dosing; settings: 4 h; dosed: Bis 2-Chloroethoxy Methane; 20 mg/kg; iv; Male; F344
[20] = tested on: Rat; test: concentration in liver after dosing; settings: 10 min; dosed: Bis 2-Chloroethoxy Methane; 20 mg/kg; iv; Male; F344
[21] = tested on: Rat; test: concentration in heart after dosing; settings: 40 min; dosed: Bis 2-Chloroethoxy Methane; 20 mg/kg; iv; Female; F344
[22] = tested on: Rat; test: concentration in thymus after dosing; settings: 4 h; dosed: Bis 2-Chloroethoxy Methane; 20 mg/kg; iv; Female; F344
[23] = tested on: Rat; test: concentration in thymus after dosing; settings: 7 h; dosed: Bis 2-Chloroethoxy Methane; 20 mg/kg; iv; Male; F344
[24] = tested on: Rat; test: concentration in plasma after dosing; settings: dosed: dichloroacetic acid, 40 mg/kg, oral, Female, Harlan Sprague Dawley
[25] = tested on: Rat; test: concentration in plasma after dosing; settings: 0.25 h; dosed: dichloroacetic acid; 10 mg/kg; oral; Male; Harlan Sprague Dawley
[26] = tested on: Rat; test: concentration in plasma after dosing; settings: 40 min; dosed: dichloroacetic acid; 100 mg/kg; oral; Male; F344
[27] = tested on: Rat; test: concentration in liver after dosing; settings: 5.333 h; dosed: Thiodiglycolic Acid; 20 mg/kg; iv; Female; Harlan Sprague Dawley
[28] = tested on: Rat; test: concentration in plasma after dosing; settings: 5.333 h; dosed: Thiodiglycolic Acid; 20 mg/kg; iv; Male; Harlan Sprague Dawley
[29] = tested on: Rat; test: concentration in heart after dosing; settings: 10 min; dosed: Thiodiglycolic Acid; 20 mg/kg; iv; Female; Harlan Sprague Dawley
[30] = tested on: Rat; test: concentration in liver after dosing; settings: 10 h; dosed: Thiodiglycolic Acid; 20 mg/kg; iv; Female; Harlan Sprague Dawley
[31] = tested on: Rat; test: concentration in heart after dosing; settings: 6.667 h; dosed: Thiodiglycolic Acid; 20 mg/kg; iv; Female; Harlan Sprague Dawley
[32] = tested on: Rat; test: concentration in plasma after dosing; settings: 10 h; dosed: Di-n-butyl phthalate; 100 mg/kg; oral; Male; Sprague-Dawley
[33] = tested on: Rat; test: concentration in plasma after dosing; settings: 24 h; dosed: Di-n-butyl phthalate; 100 mg/kg; oral; Male; Sprague-Dawley
[34] = tested on: Rat; test: concentration in plasma after dosing; settings: 6 h; dosed: Di-n-butyl phthalate; 20 mg/kg; iv; Male; Sprague-Dawley
[35] = tested on: Rat; test: concentration in plasma after dosing; settings: 40 min; dosed: Di-n-butyl phthalate; 50 mg/kg; oral; Male; Sprague-Dawley
[36] = tested on: Rat; test: concentration in plasma after dosing; settings: 5 min; dosed: Di-n-butyl phthalate; 20 mg/kg; iv; Male; Sprague-Dawley
[37] = tested on: Rat; test: concentration in plasma after dosing; settings: 3 h; dosed: Di-n-butyl phthalate; 50 mg/kg; oral; Male; Sprague-Dawley
[38] = tested on: Rat; test: concentration in plasma after dosing; settings: 0.5 h; dosed: Di-n-butyl phthalate; 50 mg/kg; oral; Male; Sprague-Dawley
[39] = tested on: Rat; test: concentration in plasma after dosing; settings: 20 min; dosed: Di-n-butyl phthalate; 50 mg/kg; oral; Male; Sprague-Dawley

`OCCC(F)(F)C(F)(F)C(F)(F)C(F)(F)C(F)(F)C(F)(F)C(F)(F)C(F)(F)F` [Fluorotelomer alcohol 8+2] was tested. Which concentration in kidney [1] did it give?
The concentration in kidney was 3330 ng/g.

What about the concentration in liver [2] of the same compound?
The concentration in liver was 434 ng/g.

And the concentration in liver [3]?
Its concentration in liver is 2020 ng/g.

And the concentration in kidney [4]?
Its concentration in kidney is 905 ng/g.

What about the concentration in brain [5] of the same compound?
Its concentration in brain is 571 ng/g.

What about the concentration in plasma ([6]; 5 min) of the same compound?
The concentration in plasma was 396 ng/mL.

What about the concentration in plasma ([6]; 3 h) of the same compound?
The concentration in plasma was 196 ng/mL.

What does the source list for `CCC1(c2ccccc2)C(=O)NC(=O)NC1=O` [Phenobarbital]?
concentration in plasma [7]: 0.8 µg/mL; concentration in plasma [8]: 2.46 µg/mL

Which concentration in liver [9] does the source give for `O=C(O)C(F)(F)C(F)(F)C(F)(F)C(F)(F)C(F)(F)C(F)(F)C(F)(F)C(F)(F)C(F)(F)F` [Perfluorodecanoic acid] here?
Its concentration in liver is 43600 ng/g.

And the concentration in liver [10]?
Its concentration in liver is 13300 ng/g.

And the concentration in plasma ([11]; 6 h)?
The concentration in plasma was 5760 ng/mL.

And the concentration in plasma ([11]; 864 h)?
The concentration in plasma was 777 ng/mL.

What about the concentration in plasma ([12]; 1 h) of the same compound?
The concentration in plasma was 6890 ng/mL.

And the concentration in plasma ([12]; 528 h)?
Its concentration in plasma is 4990 ng/mL.

And the concentration in plasma ([12]; 3360 h)?
Its concentration in plasma is 662 ng/mL.

And the concentration in plasma ([13]; 1 h)?
The concentration in plasma was 5930 ng/mL.

And the concentration in plasma ([13]; 528 h)?
The concentration in plasma was 2060 ng/mL.

And the concentration in plasma ([13]; 3360 h)?
Its concentration in plasma is 272 ng/mL.

Which concentration in thymus [14] does the source give for `ClCCOCOCCCl` [Bis 2-Chloroethoxy Methane] here?
The concentration in thymus was 34400 ng/g.

What about the concentration in liver [15] of the same compound?
Its concentration in liver is 3030 ng/g.

And the concentration in heart [16]?
The concentration in heart was 55.5 ng/g.

And the concentration in thymus [17]?
Its concentration in thymus is 26300 ng/g.

What about the concentration in liver [18] of the same compound?
The concentration in liver was 135 ng/g.

And the concentration in thymus [19]?
The concentration in thymus was 149 ng/g.

What about the concentration in liver [20] of the same compound?
Its concentration in liver is 5360 ng/g.

And the concentration in heart [21]?
Its concentration in heart is 5350 ng/g.

And the concentration in thymus [22]?
The concentration in thymus was 76.5 ng/g.

And the concentration in thymus [23]?
The concentration in thymus was 17 ng/g.

What does the source list for `O=C(O)C(Cl)Cl` [dichloroacetic acid]?
concentration in plasma ([24]; 10 min): 6.31 µg/mL; concentration in plasma ([24]; 1.5 h): 2.78 µg/mL; concentration in plasma [25]: 0.72 µg/mL; concentration in plasma [26]: 13.8 µg/mL

Which concentration in liver [27] does the source give for `O=C(O)CSCC(=O)O` [Thiodiglycolic Acid] here?
The concentration in liver was 2510 ng/g.

What about the concentration in plasma [28] of the same compound?
Its concentration in plasma is 198 ng/mL.

What about the concentration in heart [29] of the same compound?
The concentration in heart was 9540 ng/g.

And the concentration in liver [30]?
Its concentration in liver is 4910 ng/g.

What about the concentration in heart [31] of the same compound?
The concentration in heart was 262 ng/g.

`CCCCOC(=O)c1ccccc1C(=O)O` [Mono-n-butyl phthalate] was tested. Which concentration in plasma [32] did it give?
Its concentration in plasma is 2.01 µg/mL.

What about the concentration in plasma [33] of the same compound?
The concentration in plasma was 2.77 µg/mL.

And the concentration in plasma [34]?
The concentration in plasma was 0.601 µg/mL.

And the concentration in plasma [35]?
The concentration in plasma was 14.2 µg/mL.

What about the concentration in plasma [36] of the same compound?
Its concentration in plasma is 38.5 µg/mL.

What about the concentration in plasma [37] of the same compound?
Its concentration in plasma is 1.18 µg/mL.

And the concentration in plasma [38]?
Its concentration in plasma is 20.5 µg/mL.

What about the concentration in plasma [39] of the same compound?
Its concentration in plasma is 16.8 µg/mL.

From EPA's CvTdb concentration-time database
